Assay results from US20230021880A1, “Cladribine regimen for treating progressive forms of Multiple Sclerosis” (Merck Patent GmbH, priority 2017, published 2023).
Read-outs that look alike come from different tables or passages of the source.

Legend:
[1] = Cladribine pharmacokinetics following oral administration; conditions: MS patients; after oral administration of single 10-mg tablet
[2] = Intracellular pharmacokinetics of Cd-AMP and Cd-ATP in patients with chronic myelogenous leukemia; conditions: human, in vivo
Method: After entering the target cells, Cladribine is phosphorylated to Cladribine monophosphate (Cd-AMP) by DCK (and also by deoxyguanosine kinase in the mitochondria). Cd-AMP is further phosphorylated to Cladribine diphosphate (Cd-ADP) and Cladribine triphosphate (Cd-ATP). The dephosphorylation and deactivation of Cd-AMP is catalyzed by cytoplasmic […].
Intracellular half-life of Cd-ATP was 10 h.

Plasma protein binding = format: in vitro ADME; conditions: independent of plasma concentration
human hepatocytes = test: In vitro transporter-mediated uptake; format: in vitro ADME
[3] = Metabolism in hepatic in vitro systems; format: in vitro ADME
From the text: In hepatic in vitro systems, negligible metabolism of Cladribine was observed (at least 90% was unchanged Cladribine)

mice [4] = test: Repeat-dose toxicology studies by parenteral routes; format: in vivo
monkeys = test: Repeat-dose toxicology studies by parenteral routes up to 1-year duration; format: in vivo
bacteria = test: Gene mutation test; format: cell-based
Method: (§1) Cladribine is incorporated into DNA strands and inhibits DNA synthesis and repair. […] In vivo clastogenicity in mice was detected at 10 mg/kg, which was the lowest dose tested.

mammalian cells = test: Gene mutation test; format: cell-based
mice [5] = test: In vivo clastogenicity (mouse micronucleus study)
Method: as §1

Tg rasH2 mice = test: Short-term 26-week carcinogenicity study, oral; format: in vivo
monkey = test: 1-year monkey study by the subcutaneous route (tumors); format: in vivo
[6] = test system: patients with relapsing forms of clinically definite multiple sclerosis; test: Example 3: oral Cladribine induction/maintenance regimen in relapsing forms of MS; format: in vivo, human; conditions: induction treatment and maintenance treatments
From the text: The efficacy and safety of oral Cladribine administration, eventually multi-dose administration, as described herein, can alternatively also be assessed for example following the protocol for the treatment of relapsing forms of […] as given below.
A study of sixty patients with relapsing forms of clinically definite multiple sclerosis is undertaken. Each patient is first examined for normal hepatic, renal, and bone marrow functioning to establish baseline values
Patients are selected from Male or Female, between 18 and 55 years of age who had one or more relapses within the prior 12 months Female patients are non-pregnant female
Each of the patients in Groups 2 and 3 receives 3 mg or 10 mg 2-CdA (1, 2 or 3 administration(s) a day depending on the patient's weight) combined in cyclodextrin formulation a described in WO 2004/087101, Example 3. The Compositions of the Cladaribine formulations in 3 mg or 10 mg 2-CdA tablets containing […] are listed in Table 2, below. […]
Patients are monitored to determine whether there is any progression or improvement of brain lesions associated with progression of MS through MRI scans and neurological examination as described in Miller et at, 1996, above; Evans et al, 1997, above; Sipe et at, 1984, above; and Mattson, 2002, above. […]

[7] = test system: patients with relapsing-remitting MS; conditions: cited from earlier work; for annualized rate of relapse / relapse-free rate: 96 weeks
CYP2C8 = CYP2C8 (Homo sapiens, UniProt P10632)
CYP2C19 = CYP2C19 (Homo sapiens, UniProt P33261)
CYP2D6 = CYP2D6 (Homo sapiens, UniProt P10635)
[8] = in vivo; cited from earlier work
[9] = test system: patients with relapsing-remitting MS; test: CLARITY study: oral Cladribine vs placebo over 96 weeks
[10] = Population pharmacokinetic analysis (pooled data from various studies)
PPMS patients [11] = conditions: cited from earlier work
PPMS patients [12] = conditions: ORATORIO, cited from earlier work
PPMS patients [13] = conditions: cited from earlier work; remark: listed apart in the source
[14] = post-hoc, high disease activity

Sequence of CYP2C8 (P10632 whole entry): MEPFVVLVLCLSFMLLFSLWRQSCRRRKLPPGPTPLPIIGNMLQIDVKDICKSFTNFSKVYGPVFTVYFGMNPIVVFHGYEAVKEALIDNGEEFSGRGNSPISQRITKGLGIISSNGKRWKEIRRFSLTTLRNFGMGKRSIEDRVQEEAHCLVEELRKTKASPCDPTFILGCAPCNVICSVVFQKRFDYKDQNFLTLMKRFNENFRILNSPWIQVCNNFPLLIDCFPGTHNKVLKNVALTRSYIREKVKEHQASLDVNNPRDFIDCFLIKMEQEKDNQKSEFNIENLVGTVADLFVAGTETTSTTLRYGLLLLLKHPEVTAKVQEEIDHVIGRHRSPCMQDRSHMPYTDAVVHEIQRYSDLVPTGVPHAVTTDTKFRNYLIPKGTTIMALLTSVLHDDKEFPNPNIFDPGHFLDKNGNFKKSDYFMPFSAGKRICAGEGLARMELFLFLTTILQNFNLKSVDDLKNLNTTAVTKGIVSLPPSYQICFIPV
Sequence of CYP2D6 (P10635 whole entry): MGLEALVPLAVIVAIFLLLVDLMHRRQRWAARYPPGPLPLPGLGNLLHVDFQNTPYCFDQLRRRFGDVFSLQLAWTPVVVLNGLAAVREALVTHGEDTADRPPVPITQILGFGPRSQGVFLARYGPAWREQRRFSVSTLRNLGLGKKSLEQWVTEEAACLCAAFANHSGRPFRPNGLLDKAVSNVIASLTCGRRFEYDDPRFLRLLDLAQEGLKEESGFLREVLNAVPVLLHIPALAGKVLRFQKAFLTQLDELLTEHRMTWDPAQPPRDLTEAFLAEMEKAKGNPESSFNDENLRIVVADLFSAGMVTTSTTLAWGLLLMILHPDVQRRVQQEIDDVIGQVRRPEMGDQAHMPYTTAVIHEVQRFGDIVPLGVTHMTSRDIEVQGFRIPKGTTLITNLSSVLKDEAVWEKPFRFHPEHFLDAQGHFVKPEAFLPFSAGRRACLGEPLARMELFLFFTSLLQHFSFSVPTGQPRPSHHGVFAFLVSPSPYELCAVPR
Sequence of CYP2C19 (P33261 whole entry): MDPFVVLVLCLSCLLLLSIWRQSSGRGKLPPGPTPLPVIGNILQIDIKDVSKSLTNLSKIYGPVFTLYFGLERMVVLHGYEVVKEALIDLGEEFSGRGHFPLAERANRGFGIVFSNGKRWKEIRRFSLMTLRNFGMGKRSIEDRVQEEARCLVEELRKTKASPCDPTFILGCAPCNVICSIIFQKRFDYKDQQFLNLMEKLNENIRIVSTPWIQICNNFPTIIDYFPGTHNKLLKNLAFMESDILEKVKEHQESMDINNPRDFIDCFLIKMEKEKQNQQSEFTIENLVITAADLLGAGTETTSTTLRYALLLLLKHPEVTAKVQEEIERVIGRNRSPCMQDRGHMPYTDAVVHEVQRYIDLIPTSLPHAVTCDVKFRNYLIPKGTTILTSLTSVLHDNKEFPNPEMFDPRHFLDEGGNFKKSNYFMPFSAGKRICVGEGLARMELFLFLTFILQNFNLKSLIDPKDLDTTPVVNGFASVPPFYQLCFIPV

Nc1nc(Cl)nc2nc[nH]c12 [2-chloroadenine]
metabolite share of plasma parent drug exposure [1]: < 3%

Nc1nc(Cl)nc2c1ncn2[C@H]1C[C@H](O)[C@@H](COP(=O)(O)OP(=O)(O)OP(=O)(O)O)O1 [Cd-ATP, 2-chlorodeoxyadenosine triphosphate]
half-life [2]: 10 h
intracellular levels relative to Cd-AMP [2]: approximately half of the Cd-AMP levels

Nc1nc(Cl)nc2c1ncn2[C@H]1C[C@H](O)[C@@H](CO)O1 [Cladribine, 2-chloro-2′deoxyadenosine]
fraction unbound (Plasma protein binding): 0.8
transporter-mediated uptake into human hepatocytes (human hepatocytes): negligible
unchanged Cladribine [3]: at least 90%
effects on the kidneys (mice [4]): Effects on the kidneys were also seen
primary target organs (mice [4]; intravenous or subcutaneous, up to 1-year duration): lymphoid and hematopoietic system
primary target organs (monkeys; intravenous or subcutaneous, up to 1-year duration, monkeys): lymphoid and hematopoietic system
testicular effects (monkeys; monkey): Testicular degeneration and reversible decrease in spermatozoa with rapid progressive motility
other target organs after longer administration (14 cycles) (monkeys; subcutaneous route, monkeys): kidneys (karyomegaly of renal tubular epithelium), adrenals (cortex atrophy and decreased vacuolation), gastrointestinal tract (mucosa atrophy) and testes
gene mutation (bacteria): did not induce gene mutation
gene mutation (mammalian cells): did not induce gene mutation
dose at which in vivo clastogenicity was detected (lowest dose tested) (mice [5]): 10 mg/kg
exposure multiple vs expected human AUC at maximum daily dose of 20 mg (Tg rasH2 mice; 30 mg/kg per day): approximately 25 fold
tumor incidence (Tg rasH2 mice; 26-week, oral, up to 30 mg/kg per day, Tg rasH2 mice): no Cladribine-related increase in incidence of lymphoproliferative disorders or other tumor types
tumor incidence (monkey): No increased incidence in lymphoproliferative disorders and no tumors were seen
adverse effect [6]: no severe adverse effect is observed
brain lesions ([6]; oral cyclodextrin formulation): efficient in decreasing brain lesions
annualized rate of relapse ([7]; 3.5 mg per kilogram cumulative dose): 0.14
relapse-free rate ([7]; 3.5 mg per kilogram): 79.7%
annualized rate of relapse ([7]; 5.25 mg per kilogram cumulative dose): 0.15
relapse-free rate ([7]; 5.25 mg per kilogram): 78.9%
hazard ratio, 3-month sustained progression of disability ([7]; 3.5-mg group vs placebo): 0.67
herpes zoster ([7]; 3.5-mg group): 8 patients
lymphocytopenia (adverse event frequency) ([7]; 3.5-mg group): 21.6%
hazard ratio, 3-month sustained progression of disability ([7]; 5.25-mg group vs placebo): 0.69
herpes zoster ([7]; 5.25-mg group): 12 patients
lymphocytopenia (adverse event frequency) ([7]; 5.25-mg group): 31.5%
potential to act as inhibitor of CYP2C8 (CYP2C8): does not show significant potential to act as inhibitor
potential to act as inhibitor of CYP2C19 (CYP2C19): does not show significant potential to act as inhibitor
potential to act as inhibitor of CYP2D6 (CYP2D6): does not show significant potential to act as inhibitor
inductive effect on CYP2B6 (CYP2B6): no clinically meaningful inductive effect
inductive effect on CYP3A4 (CYP3A4): no clinically meaningful inductive effect
potential to penetrate the blood brain barrier [8]: 25%
adjusted mean number of active T2 lesions ([9]; 3.5 mg/kg): 0.38
adjusted mean number of combined unique lesions per patient per scan ([9]; 3.5 mg/kg): 0.43
incidence of ≥grade 3 lymphopenia ([9]; 3.5 mg/kg group): 25.6%
relative reduction in the mean number of active T2 lesions ([9]; 3.5 mg/kg vs placebo): 73%
relative reduction in the mean number of combined unique lesions per patient per scan ([9]; 3.5 mg/kg vs placebo): 74%
relative reduction in the mean number of T1 Gd+ lesions ([9]; 3.5 mg/kg vs placebo, brain MRI over 96 weeks): 86%
adjusted mean number of T1 Gd+ lesions ([9]; 3.5 mg/kg, brain MRI over 96 weeks): 0.12
incidence of ≥grade 3 lymphopenia ([9]; 5.25 mg/kg group): 44.9%
Proportion of patients relapse-free over 96 weeks ([9]; cumulative dose 3.5 mg/kg): 79.7%
Relative reduction (cladribine vs. placebo) of annualised relapse rate ([9]; cumulative dose 3.5 mg/kg): 57.6%
Time to 3-month FDSS progression, 10th percentile (months) ([9]; cumulative dose 3.5 mg/kg): 13.6 months
Proportion of patients relapse-free over 96 weeks ([9]; cumulative dose 5.25 mg/kg): 78.9%
Relative reduction (cladribine vs. placebo) of annualised relapse rate ([9]; cumulative dose 5.25 mg/kg): 54.5%
Time to 3-month FDSS progression, 10th percentile (months) ([9]; cumulative dose 5.25 mg/kg): 13.6 months
10th percentile of time to 6-month confirmed EDSS progression ([9]; post-hoc, 3.5 mg/kg group): not reached at all during the study period
hazard ratio, time to 6-month confirmed EDSS progression ([9]; post-hoc, 3.5 mg/kg vs placebo): 0.53
reduction of the risk of disability progression (time to 6-month confirmed EDSS progression) ([9]; post-hoc, 3.5 mg/kg vs placebo): 47%
10th percentile for disability progression [9, 14]: not reached during the entire study
hazard ratio, time to 6-month sustained disability [9, 14]: 0.18
reduction of risk of disability progression (time to 6-month sustained disability) [9, 14]: 82%
increase in exposure in patients with mild renal impairment ([10]; in vivo): 25%
non-renal part of the elimination ([10]; in vivo): approximately 50%
non-renal clearance (median) ([10]; pooled population pharmacokinetic data): 23.4 L/h

Cladribine monophosphate [Cd-AMP]
Intracellular half-life [2]: 15 h

glatiramer acetate
study outcome (PPMS patients [11]; PROMISE Study in PPMS): did not reach meaningful clinical endpoints
EDSS progression overall HR (95% CI) (PPMS patients [11]; PROMISE, CDP (3)): 0.87
% with CDP study drug, CDP (3) Month 12 (PPMS patients [11]; PROMISE, PPMS): 22%
% with CDP study drug, CDP (3) Month 24 (PPMS patients [11]; PROMISE, PPMS): 41%

ocrelizumab: humanized monoclonal antibody that targets the CD20 surface molecule on B-cells
EDSS progression overall HR (95% CI) (PPMS patients [12]; CDP (3)): 0.76
EDSS progression overall HR (95% CI) (PPMS patients [12]; CDP (6)): 0.75
% with CDP study drug, CDP (3) Week 120 (PPMS patients [12]): 32.9%
% with CDP study drug, CDP (6) Week 120 (PPMS patients [12]): 29.7%
% with CDP study drug, CDP (3) Month 12 (PPMS patients [12]; derived from the KM): ~13.2%
% with CDP study drug, CDP (6) Month 12 (PPMS patients [12]; derived from the KM): ~15.2%

rituximab: study drug of the OLYMPUS study in PPMS
study outcome (PPMS patients [13]; OLYMPUS study in PPMS): did not reach meaningful clinical endpoints
EDSS progression overall HR (95% CI) (PPMS patients [13]; OLYMPUS, CDP (3)): 0.77
% with CDP study drug, CDP (3) Week 48 (PPMS patients [13]; OLYMPUS, PPMS): 20.2%
% with CDP study drug, CDP (3) Week 96 (PPMS patients [13]; OLYMPUS, PPMS): 30.2%
% with CDP study drug, CDP (6) Week 96 (PPMS patients [13]; OLYMPUS, PPMS): 27.3%
